From PubChem BioAssay (NCI)
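Step 1: Grow cells in 96-well plates. Step 2: Expose to compound for 48 hours at 5 concentrations. Step 3: Interpolate endpoints linearly; if unreached, use highest concentration. GI50 is the concentration that inhibits growth by half. TGI is the concentration that stops growth completely.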

Legend:
Test in all cases: inhibition of tumour cell growth, NCI panel, 48 h; in the data active = GI50 below about 0.43 µM; inactive = the rest
SF-268 CNS = test system: SF-268 CNS
LOX IMVI melanoma = test system: LOX IMVI melanoma
DLD-1 colon = test system: DLD-1 colon
A498 renal = test system: A498 renal
HOP-92 NSCLC = test system: HOP-92 NSCLC
NCI-H460 lung = test system: NCI-H460 lung
K-562 leukemia = test system: K-562 leukemia
COLO 205 colon = test system: COLO 205 colon
UACC-62 melanoma = test system: UACC-62 melanoma
U251 CNS = test system: U251 CNS
HCT-116 colon = test system: HCT-116 colon
OVCAR-3 ovarian = test system: OVCAR-3 ovarian
DMS 273 small cell lung = test system: DMS 273 small cell lung
SN12C renal = test system: SN12C renal
SF-539 CNS = test system: SF-539 CNS
TK-10 renal = test system: TK-10 renal
ACHN renal = test system: ACHN renal
OVCAR-5 ovarian = test system: OVCAR-5 ovarian
SK-MEL-5 melanoma = test system: SK-MEL-5 melanoma
HOP-62 NSCLC = test system: HOP-62 NSCLC
SK-MEL-28 melanoma = test system: SK-MEL-28 melanoma
KM12 colon = test system: KM12 colon
MOLT-4 leukemia = test system: MOLT-4 leukemia
SNB-75 CNS = test system: SNB-75 CNS
786-0 renal = test system: 786-0 renal
KM20L2 colon = test system: KM20L2 colon
SNB-19 CNS = test system: SNB-19 CNS
HT29 colon = test system: HT29 colon
HCC-2998 colon = test system: HCC-2998 colon
SF-295 CNS = test system: SF-295 CNS
UO-31 renal = test system: UO-31 renal
MALME-3M melanoma = test system: MALME-3M melanoma
M14 melanoma = test system: M14 melanoma
HL-60(TB) leukemia = test system: HL-60(TB) leukemia
RPMI-8226 leukemia = test system: RPMI-8226 leukemia
CCRF-CEM leukemia = test system: CCRF-CEM leukemia
A549 NSCLC = test system: A549 NSCLC
UACC-257 melanoma = test system: UACC-257 melanoma
IGROV1 ovarian = test system: IGROV1 ovarian
SW-620 colon = test system: SW-620 colon
LXFL 529 NSCLC = test system: LXFL 529 NSCLC
OVCAR-8 ovarian = test system: OVCAR-8 ovarian
SK-MEL-2 melanoma = test system: SK-MEL-2 melanoma
SK-OV-3 ovarian = test system: SK-OV-3 ovarian
HCT-15 colon = test system: HCT-15 colon
NCI-H522 lung = test system: NCI-H522 lung
OVCAR-4 ovarian = test system: OVCAR-4 ovarian
SNB-78 CNS = test system: SNB-78 CNS
EKVX NSCLC = test system: EKVX NSCLC
NCI-H23 lung = test system: NCI-H23 lung

N.N.N.N.[Cl-].[Co+3].[N-]=[N+]=[N-].[N-]=[N+]=[N-]
> 100 µM: TGI (SF-268 CNS) | TGI (LOX IMVI melanoma) | TGI (DLD-1 colon) | TGI (A498 renal) | TGI (HOP-92 NSCLC) | TGI (NCI-H460 lung) | TGI (K-562 leukemia) | TGI (COLO 205 colon) | TGI (UACC-62 melanoma) | TGI (U251 CNS) | TGI (HCT-116 colon) | TGI (OVCAR-3 ovarian) | TGI (DMS 273 small cell lung) | TGI (SN12C renal) | TGI (SF-539 CNS) | TGI (TK-10 renal) | TGI (ACHN renal) | TGI (OVCAR-5 ovarian) | TGI (SK-MEL-5 melanoma) | TGI (HOP-62 NSCLC) | TGI (SK-MEL-28 melanoma) | TGI (KM12 colon) | TGI (MOLT-4 leukemia) | TGI (SNB-75 CNS) | TGI (786-0 renal) | TGI (KM20L2 colon) | TGI (SNB-19 CNS) | TGI (HT29 colon) | TGI (HCC-2998 colon) | TGI (SF-295 CNS) | TGI (UO-31 renal) | TGI (MALME-3M melanoma) | TGI (M14 melanoma) | TGI (HL-60(TB) leukemia) | TGI (RPMI-8226 leukemia) | TGI (CCRF-CEM leukemia) | TGI (A549 NSCLC) | TGI (UACC-257 melanoma) | TGI (IGROV1 ovarian) | TGI (SW-620 colon) | TGI (LXFL 529 NSCLC) | TGI (OVCAR-8 ovarian) | TGI (SK-MEL-2 melanoma) | TGI (SK-OV-3 ovarian) | TGI (HCT-15 colon) | TGI (NCI-H522 lung) | TGI (OVCAR-4 ovarian) | TGI (SNB-78 CNS) | TGI (EKVX NSCLC) | TGI (NCI-H23 lung)
inactive: GI50 (SF-268 CNS) 81.6 µM | GI50 (LOX IMVI melanoma) > 100 µM | GI50 (DLD-1 colon) > 100 µM | GI50 (A498 renal) > 100 µM | GI50 (HOP-92 NSCLC) > 100 µM | GI50 (NCI-H460 lung) > 100 µM | GI50 (K-562 leukemia) > 100 µM | GI50 (COLO 205 colon) > 100 µM | GI50 (UACC-62 melanoma) > 100 µM | GI50 (U251 CNS) > 100 µM | GI50 (HCT-116 colon) > 100 µM | GI50 (OVCAR-3 ovarian) > 100 µM | GI50 (DMS 273 small cell lung) > 100 µM | GI50 (SN12C renal) > 100 µM | GI50 (SF-539 CNS) 48.8 µM | GI50 (TK-10 renal) > 100 µM | GI50 (ACHN renal) 50.5 µM | GI50 (OVCAR-5 ovarian) > 100 µM | GI50 (SK-MEL-5 melanoma) > 100 µM | GI50 (HOP-62 NSCLC) > 100 µM | GI50 (SK-MEL-28 melanoma) 60.3 µM | GI50 (KM12 colon) > 100 µM | GI50 (MOLT-4 leukemia) 38.6 µM | GI50 (SNB-75 CNS) > 100 µM | GI50 (786-0 renal) > 100 µM | GI50 (KM20L2 colon) > 100 µM | GI50 (SNB-19 CNS) > 100 µM | GI50 (HT29 colon) > 100 µM | GI50 (HCC-2998 colon) > 100 µM | GI50 (SF-295 CNS) > 100 µM | GI50 (UO-31 renal) 41.3 µM | GI50 (MALME-3M melanoma) 57.9 µM | GI50 (M14 melanoma) > 100 µM | GI50 (HL-60(TB) leukemia) 74.3 µM | GI50 (RPMI-8226 leukemia) > 100 µM | GI50 (CCRF-CEM leukemia) 91.6 µM | GI50 (A549 NSCLC) > 100 µM | GI50 (UACC-257 melanoma) > 100 µM | GI50 (IGROV1 ovarian) > 100 µM | GI50 (SW-620 colon) > 100 µM | GI50 (LXFL 529 NSCLC) > 100 µM | GI50 (OVCAR-8 ovarian) > 100 µM | GI50 (SK-MEL-2 melanoma) > 100 µM | GI50 (SK-OV-3 ovarian) > 100 µM | GI50 (HCT-15 colon) > 100 µM | GI50 (NCI-H522 lung) > 100 µM | GI50 (OVCAR-4 ovarian) > 100 µM | GI50 (SNB-78 CNS) > 100 µM | GI50 (EKVX NSCLC) > 100 µM | GI50 (NCI-H23 lung) > 100 µM
